These are literature values, as cited in US10500227B2, “Bioactive gas-encapsulated echogenic liposomes and methods for treating cardiovascular disease” (University of Cincinnati, priority 2014, dated 2019).

Turning to `[N]=O` [NO, nitric oxide], the diffusivity entry (in muscular tissue) is “roughly 3,300 μm^2 per second”. In addition, the half-life (usually the time in which the quantity being followed falls by half) (in the presence of hemoglobin and oxygen in vivo) is less than 1 s.
